Measured values taken from the NIST ThermoML archive (doi:10.1021/acs.jced.9b00846).

Details: Liquid, Vibrating tube method

CCC(C)CC [3-methylpentane]
Details	mass density [kg/m3]
323.15 K, 15009 kPa	654.6
323.15 K, 20016 kPa	659.8
323.15 K, 24987 kPa	664.6
323.15 K, 30019 kPa	669.1
323.15 K, 34996 kPa	673.3
323.15 K, 40041 kPa	677.4
323.15 K, 44988 kPa	681.2
323.15 K, 49949 kPa	684.9
323.15 K, 55004 kPa	688.5
323.15 K, 59997 kPa	691.8
323.15 K, 64995 kPa	695.1
328.15 K, 4974 kPa	638.3
328.15 K, 9983 kPa	644.6
328.15 K, 14977 kPa	650.4
328.15 K, 20010 kPa	655.8
328.15 K, 25021 kPa	660.8
328.15 K, 29956 kPa	665.4
328.15 K, 34961 kPa	669.7
328.15 K, 40039 kPa	673.9
328.15 K, 45005 kPa	677.9
328.15 K, 50036 kPa	681.7
328.15 K, 54981 kPa	685.2
328.15 K, 60023 kPa	688.7
328.15 K, 65018 kPa	692
333.15 K, 4969 kPa	633.7
333.15 K, 9932 kPa	640.2
333.15 K, 15031 kPa	646.3
333.15 K, 19959 kPa	651.8
333.15 K, 25022 kPa	657
333.15 K, 29983 kPa	661.7
333.15 K, 34948 kPa	666.1
333.15 K, 39982 kPa	670.4
333.15 K, 45015 kPa	674.5
333.15 K, 49968 kPa	678.3
333.15 K, 54981 kPa	682
333.15 K, 59935 kPa	685.5
333.15 K, 65077 kPa	689
338.15 K, 5021 kPa	629
338.15 K, 10019 kPa	635.9
338.15 K, 15009 kPa	642.1
338.15 K, 20030 kPa	647.8
338.15 K, 25053 kPa	653.1
338.15 K, 29999 kPa	658
338.15 K, 34951 kPa	662.6
338.15 K, 39974 kPa	667
338.15 K, 45053 kPa	671.2
338.15 K, 49966 kPa	675.1
338.15 K, 54970 kPa	678.8
338.15 K, 59984 kPa	682.5
338.15 K, 65015 kPa	685.9
343.15 K, 5000 kPa	624.2
343.15 K, 10002 kPa	631.4
343.15 K, 15025 kPa	637.8
343.15 K, 20016 kPa	643.7
343.15 K, 24973 kPa	649.1
343.15 K, 29947 kPa	654.2
343.15 K, 34977 kPa	658.9
343.15 K, 39962 kPa	663.4
343.15 K, 44924 kPa	667.6
343.15 K, 50034 kPa	671.8
343.15 K, 54984 kPa	675.6
343.15 K, 59973 kPa	679.3
343.15 K, 65018 kPa	682.9
348.15 K, 4999 kPa	619.4
348.15 K, 10005 kPa	626.9
348.15 K, 15001 kPa	633.6
348.15 K, 19997 kPa	639.7
348.15 K, 24983 kPa	645.3
348.15 K, 30044 kPa	650.6
348.15 K, 34962 kPa	655.3
348.15 K, 40008 kPa	660
348.15 K, 44956 kPa	664.3
348.15 K, 50006 kPa	668.4
348.15 K, 54987 kPa	672.4
348.15 K, 59977 kPa	676.1
348.15 K, 65005 kPa	679.8
353.15 K, 4969 kPa	614.4
353.15 K, 9927 kPa	622.1
353.15 K, 14990 kPa	629.2
353.15 K, 20018 kPa	635.5
353.15 K, 25032 kPa	641.3
353.15 K, 29979 kPa	646.6
353.15 K, 34952 kPa	651.6
353.15 K, 39962 kPa	656.4
353.15 K, 44947 kPa	660.8
353.15 K, 49917 kPa	665
353.15 K, 55013 kPa	669.1
353.15 K, 59927 kPa	672.9
353.15 K, 65026 kPa	676.6
358.15 K, 4945 kPa	609.3
358.15 K, 9952 kPa	617.5
358.15 K, 15000 kPa	624.7
358.15 K, 20004 kPa	631.3
358.15 K, 25020 kPa	637.3
358.15 K, 29990 kPa	642.7
358.15 K, 34993 kPa	647.8
358.15 K, 40000 kPa	652.7
358.15 K, 44971 kPa	657.2
358.15 K, 49932 kPa	661.5
358.15 K, 54965 kPa	665.6
358.15 K, 59980 kPa	669.6
358.15 K, 65056 kPa	673.4
363.15 K, 5004 kPa	604.2
363.15 K, 9965 kPa	612.8
363.15 K, 15052 kPa	620.5
363.15 K, 19925 kPa	627.1
363.15 K, 25013 kPa	633.3
363.15 K, 29929 kPa	638.9
363.15 K, 35008 kPa	644.2
363.15 K, 39979 kPa	649.1
363.15 K, 45062 kPa	653.9
363.15 K, 50011 kPa	658.2
363.15 K, 54995 kPa	662.4
363.15 K, 60039 kPa	666.4
363.15 K, 65041 kPa	670.2
